These results are taken from publication PMC6391970, “Design, Synthesis and Characterization of Covalent KDM5 Inhibitors” (Angewandte Chemie (International Ed. in English), 2018).

The test system of series [1] is KDM5B. The settings on record: previously reported value, cited from earlier work.
In another series the target is KDM5B (NanoLuc-KDM5B) (Homo sapiens, UniProt Q9UGL1). Briefly: NanoBRET cellular target engagement assay in HEK293 cells.
Another series relates to MDCK cells. The settings on record: Previously reported values in MDCK cells, A to B; cited from earlier work.
The target of series [2] is T1, KDM5B (Homo sapiens, UniProt Q9UGL1, A373G/DEL102-140/DEL143-371/Q372G).
T1 construct: A KDM5B construct encoding regions Phe26-Ile770 was amplified from an OriGene cDNA clone; 6x-histidine tag (TEV-cleavable) (N, cleaved yes); made in house; host or cells: Sf9 insect cells (baculovirus)
T1 sequence (Q9UGL1 with tags, fused parts or gaps DEL102-140/DEL143-371/Q372G/A373G): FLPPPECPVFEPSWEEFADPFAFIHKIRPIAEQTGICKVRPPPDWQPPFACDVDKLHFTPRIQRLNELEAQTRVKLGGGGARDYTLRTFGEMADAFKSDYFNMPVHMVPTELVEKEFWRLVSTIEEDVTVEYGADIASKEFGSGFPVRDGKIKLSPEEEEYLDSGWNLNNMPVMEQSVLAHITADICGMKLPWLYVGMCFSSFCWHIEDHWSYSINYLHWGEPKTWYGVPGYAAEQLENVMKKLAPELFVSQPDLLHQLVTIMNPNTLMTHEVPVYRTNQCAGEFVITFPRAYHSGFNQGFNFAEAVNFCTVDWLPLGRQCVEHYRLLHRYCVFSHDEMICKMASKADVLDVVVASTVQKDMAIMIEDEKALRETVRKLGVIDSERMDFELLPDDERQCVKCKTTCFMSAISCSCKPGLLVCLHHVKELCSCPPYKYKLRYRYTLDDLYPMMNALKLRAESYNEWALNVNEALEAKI
Briefly: KDM5B 2-OG competition assay (AlphaScreen). Type of series: biochemical. The conditions noted are these: for IC50: AlphaScreen in vitro activity in KDM5B. The method, then:
(§1) KDM alpha screen selectivity
(§2) Inhibition of histone demethylases was assessed using the histone demethylase AlphaScreen assay (Amplified Luminescence Proximity Homogenous Assay) as previously reported.[4] The basis of this assay for lysine demethylases have been widely described.[5] In brief, the assay was performed in 384-well plate format using white proxiplates (PerkinElmer), and transfer of titrations of compounds (100 nl) was performed using an ECHO 550 acoustic dispenser […]
(§3) Tween- 20) containing the appropriate demethylase enzyme (see Supplementary table 1 for final concentrations) was transferred to each well of a 384-well proxiplate with a Multidrop™ Combi Reagent Dispenser, and the enzymes allowed to pre-incubate for 120 minutes with compound (final concentration of DMSO was 1%). After that time, the enzyme reaction was initiated by addition of 5 µl of a substrate mix consisting of Ketoglutarate (2-OG), Ferrous Ammonium Sulphate (FAS), L-Ascorbic Acid (LAA) and biotinylated peptide substrate (see Supporting table X for final assay concentrations) and the reaction incubated for the indicated time at room temperature. Reaction was stopped by the addition of 5 μl of assay buffer containing EDTA (7.5 mM) and NaCl (400 mM). Streptavidin Donor beads (0.08 mg/ml) and Protein-A conjugated acceptor beads (0.08 mg/ml) (AlphaScreen General IgG detection kit was from Perkin Elmer) were pre-incubated for 1 hour with an antibody to the product methyl mark (Supplementary Table 1) and the presence of biotin-H3-product was detected by addition of 5 µl of the pre-incubated AlphaScreen beads (final concentrations of 0.02 mg/ml with respect to acceptor and donor beads). Detection was allowed to proceed for 2 hour at room temperature and the assay plates read in a BMG Labtech Pherastar FS plate reader (excitation, 680 nm; emission, 570 […]
IC50(t) = Ki (1 + K ) . ( η . k .t − 1) (1)
KDM5B 2-OG competition assay
2-OG competition assay were performed as described for the general KDM5B AlphaScreen method above, varying the 2-OG concentrations from a range of 1mM to 0.5 μM. Data were normalized to the no enzyme control and the IC50 determined from the nonlinear regression curve fit using GraphPad Prism 7.
In general terms: Alpha assays give light when donor and acceptor beads are brought close together.

A short description of the next series: Caco-2 permeability. The conditions noted are these: human, Caco-2, Caco‐2 cells, A to B. The format is in vitro ADME. For orientation: Passage across Caco-2 layers is used to estimate intestinal permeability.
In series [3] the target is T1, KDM5B. Briefly: Covalent binding by MS (RapidFire intact mass, peptide mapping), KDM5B.
Series [4] deals with T2, KDM5B (Homo sapiens, UniProt Q9UGL1).
T2 sequence (Q9UGL1 26-101 limits assumed): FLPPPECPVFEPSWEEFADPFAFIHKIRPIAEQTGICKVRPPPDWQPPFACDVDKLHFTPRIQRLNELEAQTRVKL
T2 sequence (Q9UGL1 374-770 limits assumed): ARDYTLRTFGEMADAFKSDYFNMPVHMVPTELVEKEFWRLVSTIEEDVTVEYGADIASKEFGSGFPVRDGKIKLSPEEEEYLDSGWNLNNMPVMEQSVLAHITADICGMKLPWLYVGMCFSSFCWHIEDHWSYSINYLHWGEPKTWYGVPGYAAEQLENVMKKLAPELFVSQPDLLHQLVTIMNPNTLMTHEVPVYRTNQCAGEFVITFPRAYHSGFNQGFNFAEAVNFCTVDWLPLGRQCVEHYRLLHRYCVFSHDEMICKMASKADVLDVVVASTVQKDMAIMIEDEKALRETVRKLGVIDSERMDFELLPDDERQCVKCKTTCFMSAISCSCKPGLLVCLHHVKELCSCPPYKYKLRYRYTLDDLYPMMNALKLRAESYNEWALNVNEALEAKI
Briefly: Timecourse KDM5B AlphaScreen inhibition and kinact/Ki calculation. Type of series: biochemical. The method, then: These parameters were calculated by using an established method to derive K i and k inact directly from time‐dependant IC50 values (Table S1). […]
as §1, §2
as §3, with “570 nm). Data were normalized to the no enzyme control and the IC50 determined from the nonlinear regression curve fit” for “570”
Timecourse KDM5B inhibition and Kinact/Ki calculations
The timecourse alphascreen assay was performed using the conditions described in the AlphaScreen section for KDM5B but with different pre-incubation times (from 0 to 120 min) for the enzyme with compound. Data were normalized to the no enzyme control and the IC50 for each timepoint was determined from the nonlinear regression curve fit using GraphPad Prism 7. The Ki and kinact were calculated through a least squares fit of the obtained IC50 at the different timepoints into the equation below which was derived by Krippendorff et al.[6] S is the H3K4me3 peptide substrate concentration of 0.1 µM and KM is the Michaelis-Menten constant for the substrate of 0.5 µM. XLFit software was used to compute the values of Ki and kinact. […]

Marks after values point to notes of the source that are not given here.

Sequence of KDM5B (NanoLuc-KDM5B) (Q9UGL1 whole entry): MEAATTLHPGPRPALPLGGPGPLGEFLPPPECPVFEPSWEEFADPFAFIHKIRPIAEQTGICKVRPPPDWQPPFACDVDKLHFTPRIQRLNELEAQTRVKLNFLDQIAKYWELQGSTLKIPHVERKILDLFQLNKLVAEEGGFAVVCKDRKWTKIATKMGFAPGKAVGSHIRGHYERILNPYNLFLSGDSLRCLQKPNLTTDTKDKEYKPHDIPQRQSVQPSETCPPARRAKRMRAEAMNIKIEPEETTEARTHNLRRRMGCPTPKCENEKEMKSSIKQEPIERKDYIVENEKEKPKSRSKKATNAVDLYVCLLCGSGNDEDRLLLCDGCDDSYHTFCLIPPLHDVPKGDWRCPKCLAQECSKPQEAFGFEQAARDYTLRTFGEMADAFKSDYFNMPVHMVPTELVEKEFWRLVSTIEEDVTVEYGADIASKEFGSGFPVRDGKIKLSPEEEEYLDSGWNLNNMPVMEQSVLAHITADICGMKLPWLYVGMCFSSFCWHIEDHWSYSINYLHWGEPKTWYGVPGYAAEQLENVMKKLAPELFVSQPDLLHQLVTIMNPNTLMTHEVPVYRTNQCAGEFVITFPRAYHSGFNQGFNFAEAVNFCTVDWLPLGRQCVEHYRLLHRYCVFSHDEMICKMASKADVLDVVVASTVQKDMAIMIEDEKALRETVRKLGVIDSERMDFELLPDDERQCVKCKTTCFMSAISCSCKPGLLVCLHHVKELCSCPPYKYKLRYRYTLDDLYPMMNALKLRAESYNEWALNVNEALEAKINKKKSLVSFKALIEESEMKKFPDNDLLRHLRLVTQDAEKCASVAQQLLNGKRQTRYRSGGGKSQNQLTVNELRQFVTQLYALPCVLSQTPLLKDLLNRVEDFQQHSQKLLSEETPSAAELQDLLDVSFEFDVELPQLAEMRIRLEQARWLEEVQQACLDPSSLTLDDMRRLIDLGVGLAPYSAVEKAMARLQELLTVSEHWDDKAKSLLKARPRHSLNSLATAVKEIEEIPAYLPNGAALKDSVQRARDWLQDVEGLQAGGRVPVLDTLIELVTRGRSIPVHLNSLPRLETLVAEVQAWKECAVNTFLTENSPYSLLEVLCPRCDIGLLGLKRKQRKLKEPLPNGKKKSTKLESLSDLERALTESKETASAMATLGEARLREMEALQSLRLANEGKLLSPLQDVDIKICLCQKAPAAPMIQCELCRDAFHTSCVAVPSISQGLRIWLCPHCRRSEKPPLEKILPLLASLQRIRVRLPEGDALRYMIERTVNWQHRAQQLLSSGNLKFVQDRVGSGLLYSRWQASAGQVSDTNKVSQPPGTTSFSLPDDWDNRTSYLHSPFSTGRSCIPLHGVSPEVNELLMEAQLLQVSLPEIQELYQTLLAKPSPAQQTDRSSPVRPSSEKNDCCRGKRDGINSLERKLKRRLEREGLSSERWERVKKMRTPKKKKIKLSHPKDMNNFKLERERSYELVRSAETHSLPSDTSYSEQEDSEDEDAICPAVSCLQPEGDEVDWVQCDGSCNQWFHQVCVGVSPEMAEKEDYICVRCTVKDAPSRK

`CC(C)c1c(-c2ccccc2)[nH]c2c(C#N)cnn2c1=O` [CPI‐455]: the “2‐OG shift” value in the series on KDM5B [1] is 2.0^[c]. For the same molecule, the concentration for half-maximal inhibition (IC50) in the series with KDM5B [1] (read-out: IC50 (2‐OG 1 μM), KDM5B) was 3 nM; on KDM5B (NanoLuc-KDM5B) it was 400 nM. Besides, the P app in the series on MDCK cells was 17.2^[c] 10^−6 cm s^−1.

As to `CC(C)c1c(-c2cnn(C(C)(C)C)c2)[nH]c2c(C#N)cnn2c1=O` [Compound 1, reference compound], the concentration for half-maximal inhibition (IC50) came out at 340 nM against KDM5B (NanoLuc-KDM5B); 15 nM at KDM5B [2] (IC50 (2‐OG 1 μM), 2-OG 1 μM); 377 nM on KDM5B [2] (IC50 (2‐OG 1 mM), 2-OG 1 mM). The P app in the series on MDCK cells is 7.5^[c] 10^−6 cm s^−1. For the same molecule, at KDM5B [2] (2-OG from 0.5 μM up to 1000 μM), the “drop in potency with 2-OG concentration” value is listed as 8 fold.

In “Caco-2 permeability”, `C=CC(=O)N1CCN(CCc2cnn(-c3nccc4c(=O)[nH]cnc34)c2)CC1` [Compound 3] gave an apical-to-basolateral permeability (Papp A→B) of under 1.5 ×10⁻⁶ cm/s. Moreover, the “inhibitor reactive residue in KDM5B (peptide mapping, LCMS/MS)” value on KDM5B [3] (digestion of protein–inhibitor adduct) is on record as “binding specifically to the desired C480”. On KDM5B [3] (protein 1 μM, compound 10 μM, 2 hours, 37 °C), the “covalent binding to KDM5B by intact MS” value is recorded as “major peak relating to protein–inhibitor adduct”. At KDM5B (NanoLuc-KDM5B), the concentration for half-maximal inhibition (IC50) is over 30000 nM. Also, on KDM5B [4], the Ki is 834 ± 79 nM, the “k inact/K i” value was 1400 M⁻¹ s⁻¹ and the kinact was 0.0012 ± 1.3e-05 s⁻¹. For the same molecule, the second-order inactivation constant (kinact/KI) at KDM5B [4] (Table S1) is 1400 ± 20 M⁻¹ s⁻¹. The same molecule had a concentration for half-maximal inhibition (IC50) at KDM5B [2] (IC50 (2‐OG 1 μM), 2-OG 1 μM) of 184 nM.

In general, IC50 refers to the concentration at which inhibition is half-maximal. As usually defined, the Papp A→B is how fast a substance crosses the layer from the apical side. Low readings indicate poor permeation, high ones ready permeation. One may read the Ki as the dissociation constant of the complex between target and ligand, obtained from inhibition or displacement. Broadly, the kinact is the maximal first-order rate at which the target is inactivated. The kinact/KI is the second-order rate constant of inactivation.
